{"source": "paper PMC6526958", "about": "(Journal of medicinal chemistry, 2019)", "key": {"[1]": {"target": "T1, recombinant soluble rat CD73 (Rattus norvegicus, UniProt P21588)", "T1 sequence (P21588 29-551 limits assumed)": "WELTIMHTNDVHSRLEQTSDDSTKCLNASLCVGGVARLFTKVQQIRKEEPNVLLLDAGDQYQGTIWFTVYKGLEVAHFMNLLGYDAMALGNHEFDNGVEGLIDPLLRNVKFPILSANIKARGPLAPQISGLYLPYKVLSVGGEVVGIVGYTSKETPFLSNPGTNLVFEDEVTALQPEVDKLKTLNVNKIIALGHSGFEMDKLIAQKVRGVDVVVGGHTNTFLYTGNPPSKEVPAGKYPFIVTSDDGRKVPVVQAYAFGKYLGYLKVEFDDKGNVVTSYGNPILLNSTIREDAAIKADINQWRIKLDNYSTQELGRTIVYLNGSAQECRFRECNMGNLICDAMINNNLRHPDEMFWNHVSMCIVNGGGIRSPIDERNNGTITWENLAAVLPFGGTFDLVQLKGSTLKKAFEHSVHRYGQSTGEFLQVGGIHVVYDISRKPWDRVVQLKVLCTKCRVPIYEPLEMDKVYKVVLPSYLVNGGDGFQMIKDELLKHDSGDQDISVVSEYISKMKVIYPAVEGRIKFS", "assay": "radiometric CD73 assay with [2,8-3H]AMP, recombinant soluble rat CD73", "type": "biochemical", "settings": "for fold less active than AOPCP: rat CD73 Ki relative to AOPCP"}, "[2]": {"test_system": "recombinant soluble human CD73", "assay": "radiometric CD73 assay with [2,8-3H]AMP, recombinant soluble human CD73", "type": "biochemical", "settings": "human versus rat CD73"}, "human P2Y6 receptor": {"target": "human P2Y6 receptor (Homo sapiens, UniProt Q15077)", "sequence (Q15077 whole entry)": "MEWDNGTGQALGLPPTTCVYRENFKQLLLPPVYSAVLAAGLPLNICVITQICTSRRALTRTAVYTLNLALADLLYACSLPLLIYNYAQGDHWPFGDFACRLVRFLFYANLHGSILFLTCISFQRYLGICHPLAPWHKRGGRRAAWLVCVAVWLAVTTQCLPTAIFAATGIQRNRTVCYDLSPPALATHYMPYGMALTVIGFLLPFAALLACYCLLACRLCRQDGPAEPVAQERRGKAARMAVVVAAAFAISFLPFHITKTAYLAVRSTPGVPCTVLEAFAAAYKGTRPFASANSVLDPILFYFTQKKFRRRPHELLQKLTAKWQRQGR", "type": "cell-based", "settings": "9h up to 3.0 µM"}, "human P2Y14 receptor": {"target": "T2, human P2Y14 receptor (Homo sapiens, UniProt Q15391)", "T2 sequence (Q15391 1-338)": "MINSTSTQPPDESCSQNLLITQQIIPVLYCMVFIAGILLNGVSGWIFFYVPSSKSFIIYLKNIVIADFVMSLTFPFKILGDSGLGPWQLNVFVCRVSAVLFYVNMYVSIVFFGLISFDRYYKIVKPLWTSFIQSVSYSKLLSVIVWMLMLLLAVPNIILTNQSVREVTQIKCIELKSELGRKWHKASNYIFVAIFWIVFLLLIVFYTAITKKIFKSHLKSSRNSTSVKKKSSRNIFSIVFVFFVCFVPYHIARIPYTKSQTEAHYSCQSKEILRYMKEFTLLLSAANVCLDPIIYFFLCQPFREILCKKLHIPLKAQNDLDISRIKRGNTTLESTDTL", "assay": "fluorescent antagonist binding competition", "settings": "9h up to 3.0 µM"}, "[3]": {"assay": "stability in aqueous solution", "type": "physicochemical", "settings": "room temperature"}, "eN/CD73 in human tonsils": {"target": "T3, eN/CD73 in human tonsils (Homo sapiens, UniProt P21589)", "T3 sequence (P21589 27-574)": "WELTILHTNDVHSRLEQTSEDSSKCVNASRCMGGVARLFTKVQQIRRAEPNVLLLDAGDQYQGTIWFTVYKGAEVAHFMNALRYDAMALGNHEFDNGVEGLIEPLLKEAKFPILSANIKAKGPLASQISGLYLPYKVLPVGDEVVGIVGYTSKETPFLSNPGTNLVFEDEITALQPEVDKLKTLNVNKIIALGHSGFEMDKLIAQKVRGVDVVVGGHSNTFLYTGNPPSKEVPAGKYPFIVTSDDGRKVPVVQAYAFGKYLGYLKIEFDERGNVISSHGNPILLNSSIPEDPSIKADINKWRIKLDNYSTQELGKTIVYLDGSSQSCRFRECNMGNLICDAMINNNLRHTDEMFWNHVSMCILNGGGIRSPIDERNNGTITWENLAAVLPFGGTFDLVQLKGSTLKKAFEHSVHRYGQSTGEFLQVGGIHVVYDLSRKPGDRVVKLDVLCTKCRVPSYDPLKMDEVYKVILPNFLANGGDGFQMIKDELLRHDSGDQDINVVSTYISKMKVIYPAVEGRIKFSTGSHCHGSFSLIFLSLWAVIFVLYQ", "assay": "in situ ecto-5′-nucleotidase", "type": "biochemical", "settings": "human tonsil cryosections"}, "CD73": {"test_system": "CD73", "assay": "CD73 enzyme inhibition assay, control for the triethylammonium salt form", "type": "biochemical", "settings": "500 µM"}}, "note": "Entries after “also recorded” stand apart in the source; their conditions may differ."}
{"smiles": "Nc1ccnc2c1ncn2[C@@H]1O[C@H](COP(=O)(O)CP(=O)(O)O)[C@@H](O)[C@H]1O", "note": "[2e, 1-Deazaadenosine-5′-O-[(phosphonomethyl)phosphonic acid]]", "values": [{"measurement": "CD73 inhibitory activity (in words)", "setting": "[1]; rat CD73", "value": "inactive"}]}
{"smiles": "Nc1nccc2c1ncn2[C@@H]1O[C@H](COP(=O)(O)CP(=O)(O)O)[C@@H](O)[C@H]1O", "note": "[2f, 3-Deazaadenosine-5′-O-[(phosphonomethyl)phosphonic acid]]", "values": [{"measurement": "CD73 inhibitory activity (in words)", "setting": "[1]; rat CD73", "value": "inactive"}]}
{"smiles": "Nc1ncnc2c1ccn2[C@@H]1O[C@H](COP(=O)(O)CP(=O)(O)O)[C@@H](O)[C@H]1O", "note": "[2g, 7-Deazaadenosine-5′-O-[(phosphonomethyl)phosphonic acid]]", "values": [{"measurement": "fold higher CD73 inhibitory activity compared to AOPCP", "setting": "[1]; rat CD73", "value": 2, "unit": "fold"}]}
{"smiles": "O=c1ccn([C@@H]2O[C@H](COP(=O)(O)CP(=O)(O)O)[C@@H](O)[C@H]2O)c(=O)[nH]1", "note": "[4a, Uridine-5′-O-[(phosphonomethyl)phosphonic acid]]", "values": [{"measurement": "fold less active than AOPCP", "setting": "[1]", "value": 11, "unit": "fold"}]}
{"smiles": "CCn1c(=O)ccn([C@@H]2O[C@H](COP(=O)(O)CP(=O)(O)O)[C@@H](O)[C@H]2O)c1=O", "note": "[4c, 3-Ethyluridine-5′-O-[(phosphonomethyl)phosphonic acid]]", "values": [{"measurement": "CD73 inhibitory activity (in words)", "setting": "[1]; rat CD73", "value": "inactive"}]}
{"smiles": "CCCn1c(=O)ccn([C@@H]2O[C@H](COP(=O)(O)CP(=O)(O)O)[C@@H](O)[C@H]2O)c1=O", "note": "[4d, 3-Propyluridine-5′-O-[(phosphonomethyl)phosphonic acid]]", "values": [{"measurement": "CD73 inhibitory activity (in words)", "setting": "[1]; rat CD73", "value": "inactive"}]}
{"smiles": "O=c1ccn([C@@H]2O[C@H](COP(=O)(O)CP(=O)(O)O)[C@@H](O)[C@H]2O)c(=O)n1Cc1ccccc1", "note": "[4e, 3-Benzyluridine-5′-O-[(phosphonomethyl)phosphonic acid]]", "values": [{"measurement": "CD73 inhibitory activity (in words)", "setting": "[1]; rat CD73", "value": "inactive"}]}
{"smiles": "CO[C@@H]1[C@H](O)[C@@H](COP(=O)(O)CP(=O)(O)O)O[C@H]1n1cc(C)c(=O)[nH]c1=O", "note": "[4h, 2′-O-Methyl-5-methyluridine-5′-O-[(phosphonomethyl)phosphonic acid]]", "values": [{"measurement": "CD73 inhibitory activity (in words)", "setting": "[1]; rat CD73", "value": "inactive"}]}
{"smiles": "O=c1[nH]c(=O)n([C@@H]2O[C@H](COP(=O)(O)CP(=O)(O)O)[C@@H](O)[C@H]2O)cc1F", "note": "[4l, 5-Fluorouridine-5′-O-[(phosphonomethyl)phosphonic acid]]", "values": [{"measurement": "fold more potent at human CD73 as compared to the rat enzyme", "setting": "[2]", "value": "2 to 3", "unit": "fold"}]}
{"smiles": "O=c1ccn([C@@H]2O[C@H](COP(=O)(O)CCP(=O)(O)O)[C@@H](O)[C@H]2O)c(=O)[nH]1", "note": "[4w, Uridine-5′-O-[(phosphonoethyl)phosphonic acid]]", "values": [{"measurement": "CD73 inhibitory activity (in words)", "setting": "[1]; rat CD73", "value": "complete loss of CD73 inhibition"}]}
{"smiles": "Cc1cn([C@@H]2O[C@H](COP(=O)(O)CCP(=O)(O)O)[C@@H](O)[C@H]2O)c(=O)[nH]c1=O", "note": "[4x, 5-Methyluridine-5′-O-[(phosphonoethyl)phosphonic acid]]", "values": [{"measurement": "CD73 inhibitory activity (in words)", "setting": "[1]; rat CD73", "value": "complete loss of CD73 inhibition"}]}
{"smiles": "O=c1ccn([C@@H]2O[C@H](COP(=O)(O)CP(=O)(O)O)[C@@H](O)[C@H]2O)c(=S)[nH]1", "note": "[4y, 2-Thiouridine-5′-O-[(phosphonomethyl)phosphonic acid]]", "values": [{"measurement": "CD73 inhibitory activity (in words)", "setting": "[1]; rat CD73", "value": "not tolerated"}]}
{"smiles": "Nc1ccn([C@@H]2O[C@H](COP(=O)(O)CP(=O)(O)O)[C@@H](O)[C@H]2O)c(=O)n1", "note": "[7a, Cytidine-5′-O-[(phosphonomethyl)phosphonic acid]]", "values": [{"measurement": "fold less active than AOPCP", "setting": "[1]", "value": 5, "unit": "fold"}]}
{"smiles": "O=C(Nc1ccn([C@@H]2O[C@H](COP(=O)(O)CP(=O)(O)O)[C@@H](O)[C@H]2O)c(=O)n1)c1ccccc1", "note": "[7f, 4-Benzoylcytidine-5′-O-[(phosphonomethyl)phosphonic acid]]", "values": [{"measurement": "fold more potent at human CD73 as compared to the rat enzyme", "setting": "[2]", "value": "2 to 3", "unit": "fold"}, {"measurement": "potency at P2Y6 receptor (in words)", "setting": "human P2Y6 receptor", "value": "potencies in the micromolar range"}, {"measurement": "potency at P2Y14 receptor (in words)", "setting": "human P2Y14 receptor", "value": "potencies in the micromolar range"}, {"measurement": "stability in aqueous solution", "setting": "[3]", "value": "gradual decomposition when left at room temperature over several weeks in aqueous solution to UOPCP (4a) and COPCP (7a); also recorded: decomposition of compound 7f to UOPCP"}]}
{"smiles": "O=c1[nH]/c(=N/OCc2ccc3ccccc3c2)ccn1[C@@H]1O[C@H](COP(=O)(O)CP(=O)(O)O)[C@@H](O)[C@H]1O", "note": "[9e, N^4-[O-(Naphthalen-2-ylmethoxy)]-cytidine-5′-O-[(phosphonomethyl)phosphonic acid]]", "values": [{"measurement": "fold more potent at human CD73 as compared to the rat enzyme", "setting": "[2]", "value": "2 to 3", "unit": "fold"}]}
{"smiles": "O=c1[nH]/c(=N/OCc2ccccc2)c(F)cn1[C@@H]1O[C@H](COP(=O)(O)CP(=O)(O)O)[C@@H](O)[C@H]1O", "note": "[9g, N^4-[O-(4-Benzyloxy)]-5-fluoro-cytidine-5′-O-[(phosphonomethyl)phosphonic acid]]", "values": [{"measurement": "fold more potent at human CD73 as compared to the rat enzyme", "setting": "[2]", "value": 5, "unit": "fold"}]}
{"smiles": "Cn1c(=O)n([C@@H]2O[C@H](COP(=O)(O)CP(=O)(O)O)[C@@H](O)[C@H]2O)cc/c1=N/OCc1ccccc1", "note": "[9h, N^4-[O-(4-Benzyloxy)]-3-methyl-cytidine-5′-O-[(phosphonomethyl)phosphonic acid]]", "values": [{"measurement": "potency at P2Y6 receptor (in words)", "setting": "human P2Y6 receptor", "value": "completely inactive"}, {"measurement": "potency at P2Y14 receptor (in words)", "setting": "human P2Y14 receptor", "value": "completely inactive"}, {"measurement": "inhibition of CD73 catalytic (AMPase) activity in situ", "setting": "eN/CD73 in human tonsils; 1, 10 and 100 nM, 100 µM AMP", "value": "inhibited catalytic activity of CD73 in a concentration-dependent manner, in situ more potently than AOPCP"}, {"measurement": "reversibility of CD73 inhibition", "setting": "eN/CD73 in human tonsils", "value": "highly reversible CD73 inhibitor"}]}
{"smiles": "Nc1ncnc2c1ncn2[C@@H]1O[C@H](COP(=O)(O)O)[C@@H](O)[C@H]1O", "note": "[AMP, adenosine 5′-monophosphate]", "values": [{"measurement": "Km", "setting": "[1]; read-out: Km, rat CD73, substrate AMP", "value": "53 ± 4.1", "unit": "µM"}]}
{"smiles": "O=c1cc(O)ccn1[C@@H]1O[C@H](COP(=O)(O)CP(=O)(O)O)[C@@H](O)[C@H]1O", "note": "[compound 10, 3-Deazauridine-5′-O-[(phosphonomethyl)phosphonic acid]]", "values": [{"measurement": "CD73 inhibitory activity (in words)", "setting": "[1]; rat CD73", "value": "inactive"}]}
{"smiles": "O=c1ccn([C@@]23C[C@H]2[C@H](COP(=O)(O)CP(=O)(O)O)[C@@H](O)[C@H]3O)c(=O)[nH]1", "note": "[compound 11, (S)-Methanocarbauridine-5′-O-[(phosphonomethyl)phosphonic acid]]", "values": [{"measurement": "CD73 inhibitory activity (in words)", "setting": "[1]; rat CD73", "value": "inactive"}]}
{"smiles": "CCOP(=O)(O)OP(=O)(O)OC[C@H]1O[C@@H](n2ccc(=O)[nH]c2=S)[C@H](O)[C@@H]1O", "note": "[compound 12]", "values": [{"measurement": "CD73 inhibitory activity (in words)", "setting": "[1]; rat CD73", "value": "inactive"}]}
{"smiles": "CCN(CC)CC.Cl", "note": "[triethylammonium chloride]", "values": [{"measurement": "reduction of CD73 enzymatic activity", "setting": "CD73", "value": "no reduction of enzymatic activity was detected"}]}
